From PubChem BioAssay (NCI)
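Interpolation was linear, between the two tested concentrations surrounding the appropriate level; five concentrations were tested over 48 hours in 96-well plates. Here, GI50 denotes the concentration required for 50% inhibition of growth. At the TGI there is no net growth.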

Key:
Assay in all cases: NCI tumour cell line growth inhibition, 48 h
[1] = tested on: K-562 leukemia
[2] = tested on: HOP-92 NSCLC
[3] = tested on: TK-10 renal
[4] = tested on: HS 578T breast
[5] = tested on: LOX IMVI melanoma
[6] = tested on: NCI-H460 lung
[7] = tested on: PC-3 prostate
[8] = tested on: HCC-2998 colon
[9] = tested on: UACC-257 melanoma
[10] = tested on: EKVX NSCLC
[11] = tested on: HOP-62 NSCLC
[12] = tested on: SNB-75 CNS
[13] = tested on: UO-31 renal
[14] = tested on: SF-539 CNS
[15] = tested on: SW-620 colon
[16] = tested on: OVCAR-5 ovarian
[17] = tested on: MDA-MB-435
[18] = tested on: KM12 colon
[19] = tested on: MCF7 breast
[20] = tested on: SF-295 CNS
[21] = tested on: BT-549 breast
[22] = tested on: CAKI-1 renal
[23] = tested on: HL-60(TB) leukemia
[24] = tested on: NCI-H226 lung
[25] = tested on: RPMI-8226 leukemia
[26] = tested on: SNB-19 CNS
[27] = tested on: IGROV1 ovarian
[28] = tested on: U251 CNS
[29] = tested on: COLO 205 colon
[30] = tested on: SF-268 CNS
[31] = tested on: SK-MEL-28 melanoma
[32] = tested on: OVCAR-3 ovarian
[33] = tested on: OVCAR-4 ovarian
[34] = tested on: A549 NSCLC
[35] = tested on: SK-MEL-2 melanoma
[36] = tested on: UACC-62 melanoma
[37] = tested on: HCT-15 colon
[38] = tested on: OVCAR-8 ovarian
[39] = tested on: HCT-116 colon
[40] = tested on: A498 renal
[41] = tested on: HT29 colon
[42] = tested on: RXF 393 renal
[43] = tested on: NCI-H522 lung
[44] = tested on: SK-OV-3 ovarian
[45] = tested on: SN12C renal
[46] = tested on: NCI-H23 lung
[47] = tested on: M14 melanoma
[48] = tested on: T-47D breast
[49] = tested on: MOLT-4 leukemia
[50] = tested on: DU-145 prostate
[51] = tested on: SK-MEL-5 melanoma
[52] = tested on: 786-0 renal
[53] = tested on: MDA-MB-231 breast
[54] = tested on: CCRF-CEM leukemia
[55] = tested on: MDA-MB-468 breast
[56] = tested on: ACHN renal
[57] = tested on: MALME-3M melanoma
[58] = tested on: SR leukemia

## CC(=O)Nc1ccc(-c2cn(-c3cccc(C(=O)Nc4cc(C(F)(F)F)cc(C(F)(F)F)c4)c3)nn2)cn1
[1]
  GI50: 0.154 µM
  TGI: 10.5 µM
[2]
  GI50: 2.7 µM
  TGI: 8.6 µM
[3]
  GI50: 26 µM
  TGI: 49.3 µM
[4]
  GI50: 6.17 µM
  TGI: 48.9 µM
[5]
  GI50: 4.53 µM
  TGI: 16.3 µM
[6]
  GI50: 4.2 µM
  TGI: 15.2 µM
[7]
  GI50: 3.4 µM
  TGI: 10.8 µM
[8]
  GI50: 14 µM
  TGI: 34.3 µM
[9]
  GI50: 12.9 µM
  TGI: 36 µM
[10]
  GI50: 11.2 µM
  TGI: 36.1 µM
[11]
  GI50: 8.56 µM
  TGI: 22.5 µM
[12]
  GI50: 5.84 µM
  TGI: 28.4 µM
[13]
  GI50: 19.5 µM
  TGI: 37.2 µM
[14]
  GI50: 10 µM
  TGI: 24.8 µM
[15]
  GI50: 7.85 µM
  TGI: 24.1 µM
[16]
  GI50: 18.7 µM
  TGI: 38.9 µM
[17]
  GI50: 11.7 µM
  TGI: 28.1 µM
[18]
  GI50: 0.417 µM
  TGI: 12.7 µM
[19]
  GI50: 4.68 µM
  TGI: 21.8 µM
[20]
  GI50: 14.2 µM
  TGI: 37.3 µM
[21]
  GI50: 3.37 µM
  TGI: 8.51 µM
[22]
  GI50: 17.3 µM
  TGI: 45.1 µM
[23]
  GI50: 1.23 µM
  TGI: 10.9 µM
[24]
  GI50: 13.8 µM
  TGI: 30.1 µM
[25]
  GI50: 3.46 µM
  TGI: 15 µM
[26]
  GI50: 19.9 µM
  TGI: 50.2 µM
[27]
  GI50: 16.4 µM
  TGI: 35.3 µM
[28]
  GI50: 3.85 µM
  TGI: 13.5 µM
[29]
  GI50: 7.14 µM
  TGI: 23.7 µM
[30]
  GI50: 21 µM
  TGI: 64.7 µM
[31]
  GI50: 12.9 µM
  TGI: 29.3 µM
[32]
  GI50: 7.7 µM
  TGI: 21.2 µM
[33]
  GI50: 11.9 µM
  TGI: 31.7 µM
[34]
  GI50: 4.54 µM
  TGI: 16.3 µM
[35]
  GI50: 13.4 µM
  TGI: 28.1 µM
[36]
  GI50: 13.5 µM
  TGI: 29.8 µM
[37]
  GI50: 10.9 µM
  TGI: 33.1 µM
[38]
  GI50: 8.26 µM
  TGI: 24.4 µM
[39]
  GI50: 5.78 µM
  TGI: 27.7 µM
[40]
  GI50: 25.4 µM
  TGI: 42.1 µM
[41]
  GI50: 3.24 µM
  TGI: 12.9 µM
[42]
  GI50: 11.2 µM
  TGI: 26.4 µM
[43]
  GI50: 12.3 µM
  TGI: 30.8 µM
[44]
  GI50: 13.5 µM
  TGI: 34.1 µM
[45]
  GI50: 11 µM
  TGI: 28.1 µM
[46]
  GI50: 14.2 µM
  TGI: 33.5 µM
[47]
  GI50: 4.39 µM
  TGI: 19.9 µM
[48]
  GI50: 19.1 µM
  TGI: 91.6 µM
[49]
  GI50: 1.94 µM
  TGI: 6.12 µM
[50]
  GI50: 10.4 µM
  TGI: 29.5 µM
[51]
  GI50: 16.4 µM
  TGI: 33.2 µM
[52]
  GI50: 3.41 µM
  TGI: 12 µM
[53]
  GI50: 7.51 µM
  TGI: 25.1 µM
[54]
  GI50: 2.4 µM
  TGI: 6.76 µM
[55]
  GI50: 3.46 µM
  TGI: 16.2 µM
[56]
  GI50: 11.1 µM
  TGI: 37.5 µM
[57]
  GI50: 3.26 µM
  TGI: 12.6 µM
[58]
  GI50: 1.89 µM
  TGI: 5.18 µM
